# Assay results from patent EP4603105A1, “PHARMACEUTICAL COMPOSITION CONTAINING CYCLIC COMPOUND HAVING SELECTIVE KRAS INHIBITORY EFFECT AGAINST HRAS AND NRAS” (CHUGAI SEIYAKU KABUSHIKI KAISHA, priority 2022, dated 2024).
# Assays:
# [1] = system: human gastric cancer strain SNU-1; assay type: cell-based
# Method: (§1) A test compound was dispensed into a U-bottom 384-well plate as 40 nL serially diluted dimethyl sulfoxide solutions using a liquid handler Echo (LABCYTE). As for human gastric cancer strain SNU-1 (ATCC), a cell suspension was prepared so as to have 250 cells/40 µL in an RPMI-1640 medium (Sigma) supplemented with 10% fetal bovine serum (Sigma), a 2.5 g/L D-(+)-glucose solution, 10 mmol/L HEPES, and 1 mmol/L sodium pyruvate. This cell suspension was dispensed in an amount of 40 µL per well into a plate containing the test compound, and cultured at 37°C in a 5% carbon dioxide gas incubator. Seven days later, 20 µL of CellTiter-Glo (registered trademark) (Promega) was added to each well and luminescence was measured.
# [2] = system: human colorectal cancer strain GP2d; assay type: cell-based
# Method: as §1, with “colorectal” for “gastric”, “GP2d (ECACC),” for “SNU-1 (ATCC),”, “500” for “250”, “a Dulbecco's modified Eagle” for “an RPMI-1640”, “medium” for “medium (Sigma)”, “(Sigma).” for “(Sigma), a 2.5 g/L D-(+)-glucose solution, 10 mmol/L HEPES, and 1 mmol/L sodium pyruvate.”
# [3] = system: human pancreatic cancer strain KP4; assay type: cell-based
# Method: as §1, with “pancreatic” for “gastric”, “KP4 (Institute of Physical and Chemical Research),” for “SNU-1 (ATCC),”, “500” for “250”, “a DMEM/Ham's F-12” for “an RPMI-1640”, “(Nacalai Tesque)” for “(Sigma)”, “(Sigma).” for “(Sigma), a 2.5 g/L D-(+)-glucose solution, 10 mmol/L HEPES, and 1 mmol/L sodium pyruvate.”
# [4] = target: GDP-bound KRAS wild-type protein (Homo sapiens, UniProt P01116); experiment: Binding to KRAS by surface plasmon resonance (SPR), dissociation constant KD; conditions: Single Cycle Kinetics
# GDP-bound KRAS wild-type protein, sequence (P01116 1-188 isoform P01116-2): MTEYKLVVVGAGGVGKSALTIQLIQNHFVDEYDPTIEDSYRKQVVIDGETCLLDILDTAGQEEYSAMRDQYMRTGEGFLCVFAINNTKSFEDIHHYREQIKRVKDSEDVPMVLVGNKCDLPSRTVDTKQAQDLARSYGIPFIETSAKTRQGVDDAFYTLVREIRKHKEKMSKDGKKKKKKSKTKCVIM
# Summary of the method: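 SPR, 30°C: Avi-biotin RAS·GDP captured via Biotin CAPture (~100–300 RU); running buffer HBS pH 7.4, 1 mM DTT, 10 mM MgCl2, 0.01% Tween 20, 10 µM GDP, 4% DMSO. Single-cycle kinetics, 100 µL/min, 75 s injections; 1:1 model → KD.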
# HRAS wild-type protein = HRAS wild-type protein (Homo sapiens, UniProt P01112); experiment: Binding to HRAS by surface plasmon resonance (SPR), KD and KD ratio to KRAS; conditions: ratio of KD for HRAS wild-type protein to KD for KRAS
# HRAS wild-type protein, sequence (P01112 whole entry): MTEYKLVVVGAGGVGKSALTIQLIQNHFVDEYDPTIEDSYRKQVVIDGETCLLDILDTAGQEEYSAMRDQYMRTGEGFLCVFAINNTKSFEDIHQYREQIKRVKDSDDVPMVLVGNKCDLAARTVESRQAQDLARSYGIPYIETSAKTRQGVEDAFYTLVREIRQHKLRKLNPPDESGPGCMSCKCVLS
# Summary of the method: (§2)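 Affinity is measured by surface plasmon resonance at 30°C against captured, GDP-loaded RAS carrying a biotinylated Avi tag. Compounds are titrated by single-cycle kinetics, and KD comes from a 1:1 fit.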
# [5] = target: GDP-bound NRAS wild-type protein (Homo sapiens, UniProt P01111); experiment: Binding to NRAS by surface plasmon resonance (SPR), KD and KD ratio to KRAS; conditions: ratio of KD for GDP-bound NRAS wild-type protein to KD for KRAS
# GDP-bound NRAS wild-type protein, sequence (P01111 whole entry): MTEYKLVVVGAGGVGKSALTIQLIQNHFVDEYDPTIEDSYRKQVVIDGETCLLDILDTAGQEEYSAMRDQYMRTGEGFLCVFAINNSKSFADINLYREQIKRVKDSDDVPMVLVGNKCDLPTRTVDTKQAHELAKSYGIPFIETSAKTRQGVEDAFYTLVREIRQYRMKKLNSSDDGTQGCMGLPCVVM
# Summary of the method: as §2
# [6] = system: human lung cancer strain NCI-H441; assay type: cell-based
# Summary of the method: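 Readout: […] after the ATP-based reagent. Compound: serial dilutions in dimethyl sulfoxide.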
# [7] = system: human ovarian cancer strain OV7; assay type: cell-based
# Method: A test compound was dispensed into a U-bottom 384-well plate as 40 nL serially diluted dimethyl sulfoxide solutions using a liquid handler Echo (LABCYTE). As for human ovarian cancer strain OV7 (ECACC), a cell suspension was prepared so as to have 250 cells/40 µL in a DMEM/Ham's F-12 medium (Nacalai Tesque) supplemented with 5% fetal bovine serum (Sigma), 0.5 µg/mL hydrocortisone, and 10 µg/mL insulin. This cell suspension was dispensed in an amount of 40 µL per well into a plate containing the test compound, and cultured at 37°C in a 5% carbon dioxide gas incubator. Seven days later, 20 µL of CellTiter-Glo (registered trademark) (Promega) was added to each well and luminescence was measured.
# [8] = system: human bladder cancer strain UM-UC-3; assay type: cell-based
# Method: as §1, with “human bladder” for “human gastric”, “strain UM-UC-3” for “strain SNU-1”, “an MEM” for “an RPMI-1640”, “medium (Nacalai Tesque)” for “medium (Sigma)”, “(Sigma), an MEM non-essential amino acids solution (100X),” for “(Sigma), a 2.5 g/L D-(+)-glucose solution, 10 mmol/L HEPES,”, “measured. […]” for “measured.”
# [9] = system: human gastric cancer strain GSU; assay type: cell-based
# Method: as §1, with “GSU (Institute of Physical and Chemical Research),” for “SNU-1 (ATCC),”, “200” for “250”, “(Sigma).” for “(Sigma), a 2.5 g/L D-(+)-glucose solution, 10 mmol/L HEPES, and 1 mmol/L sodium pyruvate.”
IC50 [1],IC50 [2],IC50 [3],Kd [4],IC50 [6],IC50 [7],IC50 [8],IC50 [9],SMILES,HRAS /KRAS (HRAS wild-type protein),NRAS /KRAS [5]
4 nM,5.1 nM,15.1 nM,0.11 nM,5.8 nM,14.4 nM,2.9 nM,0.9 nM,"CCO[C@@H]1C[C@H]2C(=O)NC3(CCCC3)C(=O)N(C)[C@@H](C3CCCC3)C(=O)N(C)[C@H](C(=O)N(C)C)CC(=O)N(C)[C@@H](CC(C)C)C(=O)N[C@@H]([C@@H](C)CC)C(=O)N(C)CC(=O)N(C)[C@H]3C/C=C\CCN(C3=O)[C@@H](Cc3ccc(C)cc3)C(=O)N(C)CC(=O)N[C@@H](CCc3cc(F)c(C(F)(F)F)c(F)c3)C(=O)N2C1 [PP3478, (2S,8S,12R,14S,20S,23S,27S,30S,36S,38Z)-20-cyclopentyl-8-[2-[3,5-difluoro-4-(trifluoromethyl)phenyl]ethyl]-12-ethoxy-27-isobutyl-N,N,4,19,22,26,32,35-octamethyl-30-[(1S)-1-methylpropyl]-3,6,9,15,18,21,25,28,31,34,42-undecaoxo-2-(p-tolylmethyl)spiro[1,4,7,10,16,19,22,26,29,32,35-undecazatricyclo[34.5.1.0^10,14]dotetracont-38-ene-17,1'-cyclopentane]-23-carboxamide]",A (a compound having 10 or more and less than 20 is denoted as A),A (a compound having 10 or more and less than 20 is denoted as A)
2.5 nM,3.5 nM,13.1 nM,0.076 nM,7.2 nM,13.2 nM,3.9 nM,0.8 nM,"CCO[C@@H]1C[C@H]2C(=O)NC3(CCCC3)C(=O)N(C)[C@@H](C3CCCC3)C(=O)N(C)[C@H](C(=O)N(C)C)CC(=O)N(C)[C@@H]([C@@H](C)OC)C(=O)N[C@@H]([C@@H](C)CC)C(=O)N(C)CC(=O)N(C)[C@H]3C/C=C\CCN(C3=O)[C@@H](Cc3ccc(C(F)(F)F)cc3)C(=O)N(C)CC(=O)N[C@@H](CCc3cc(F)c(C(F)(F)F)c(F)c3)C(=O)N2C1 [PP3475, (2S,8S,12R,14S,20S,23S,27S,30S,36S,38Z)-20-cyclopentyl-8-[2-[3,5-difluoro-4-(trifluoromethyl)phenyl]ethyl]-12-ethoxy-27-[(1R)-1-methoxyethyl]-N,N,4,19,22,26,32,35-octamethyl-30-[(1S)-1-methylpropyl]-3,6,9,15,18,21,25,28,31,34,42-undecaoxo-2-[[4-(trifluoromethyl)phenyl]methyl]spiro[1,4,7,10,16,19,22,26,29,32,35-undecazatricyclo[34.5.1.0^10,14]dotetracont-38-ene-17,1'-cyclopentane]-23-carboxamide]",A (a compound having 10 or more and less than 20 is denoted as A),A (a compound having 10 or more and less than 20 is denoted as A)
6.6 nM,3.8 nM,9.3 nM,0.1 nM,5.7 nM,7.1 nM,3.7 nM,1.9 nM,"C#CC[C@H]1C(=O)N[C@@H]([C@@H](C)CC)C(=O)N2CCC[C@H]2C(=O)N(C)[C@H]2C/C=C\CCN(C2=O)[C@@H](Cc2ccc(C)cc2)C(=O)N(C)CC(=O)N[C@@H](CCc2ccc(C(F)(F)F)c(OC)c2)C(=O)N2C[C@H](OCC)C[C@H]2C(=O)N(C)C2(CCC2)C(=O)N(C)[C@@H](C2CCCC2)C(=O)N(C)[C@H](C(=O)N(C)C)CC(=O)N1C [PP3255, (1S,4S,10S,13S,17S,20S,26S,28R,32S,38S,42Z)-20-cyclopentyl-28-ethoxy-32-[2-[3-methoxy-4-(trifluoromethyl)phenyl]ethyl]-N,N,2,14,18,21,24,36-octamethyl-10-[(1S)-1-methylpropyl]-3,9,12,15,19,22,25,31,34,37,45-undecaoxo-13-prop-2-ynyl-38-(p-tolylmethyl)spiro[2,8,11,14,18,21,24,30,33,36,39-undecazatetracyclo[37.5.1.0^4,8.0^26,30]pentatetracont-42-ene-23,1'-cyclobutane]-17-carboxamide]",A (a compound having 10 or more and less than 20 is denoted as A),A (a compound having 10 or more and less than 20 is denoted as A)
20.4 nM,22.6 nM,18.6 nM,0.57 nM,11.9 nM,42.5 nM,13.9 nM,2.8 nM,"CCC[C@H]1C(=O)N[C@@H]([C@@H](C)CC)C(=O)N2CCC[C@H]2C(=O)N(C)[C@H]2C/C=C\CCN(C2=O)[C@@H](Cc2ccc(C(F)(F)F)cc2)C(=O)N(C)CC(=O)N[C@@H](CCc2ccc(C(F)(F)F)c(OC)c2)C(=O)N2C[C@H](OCC)C[C@H]2C(=O)OC2(CCC2)C(=O)N(C)[C@@H](C2CCCC2)C(=O)N(C)[C@H](C(=O)N(C)C)CC(=O)N1C [PP3368, (1S,4S,10S,13S,17S,20S,26S,28R,32S,38S,42Z)-20-cyclopentyl-28-ethoxy-32-[2-[3-methoxy-4-(trifluoromethyl)phenyl]ethyl]-N,N,2,14,18,21,36-heptamethyl-10-[(1S)-1-methylpropyl]-3,9,12,15,19,22,25,31,34,37,45-undecaoxo-13-propyl-38-[[4-(trifluoromethyl)phenyl]methyl]spiro[24-oxa-2,8,11,14,18,21,30,33,36,39-decazatetracyclo[37.5.1.0^4,8.0^26,30]pentatetracont-42-ene-23,1'-cyclobutane]-17-carboxamide]",A (a compound having 10 or more and less than 20 is denoted as A),A (a compound having 10 or more and less than 20 is denoted as A)
